From patent US7118895B2, “Process for producing aglycon by using diglycosidase and flavor-improved food containing the aglycon and converting agent to be used in the process” (Amano Enzyme Inc., priority 2000, dated 2006)

System: Crude diglycosidase
Test: Examination of pH in the conversion into isoflavone aglycons by diglycosidase using soybean materials
Type: biochemical, Penicillium multicolor IAM7153
Design: Decomposition efficiency of genistin family in soymilk / Decomposition efficiency of genistin family in defatted soybean / Decomposition efficiency of daidzin family in defatted soybean: concentration or dose not given beside the values
Details: for Decomposition efficiency of daidzin family in roasted soy flour: 55° C.
Procedure, shortened: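 Each soybean material (50 mg) is suspended and set to a pH between 2 and 11. Crude diglycosidase, adjusted to 1.88 AU/mL in enzyme solution of the same pH, is added, and the mixture is incubated at 55° C. Ethanol is added at 0, 1, 3 and 6 h, then supernatants go to HPLC.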

[1] = pH4.8, heat treatment of enzyme: no, reaction time 0 h
[2] = pH4.8, heat treatment of enzyme: no, reaction time 1 h
[3] = pH4.8, heat treatment of enzyme: no, reaction time 3 h
[4] = pH4.8, heat treatment of enzyme: no, reaction time 6 h
[5] = pH4.8, heat treatment of enzyme: yes, reaction time 6 h
[6] = pH6.6, heat treatment of enzyme: no, reaction time 0 h
[7] = pH6.6, heat treatment of enzyme: no, reaction time 1 h
[8] = pH6.6, heat treatment of enzyme: no, reaction time 3 h
[9] = pH6.6, heat treatment of enzyme: no, reaction time 6 h
[10] = pH6.6, heat treatment of enzyme: yes, reaction time 6 h

- Decomposition efficiency of daidzin family in concentrated soybean protein (pH1.6, heat treatment of enzyme: no, reaction time 0 h): 3.0%
- Decomposition efficiency of daidzin family in concentrated soybean protein (pH1.6, heat treatment of enzyme: no, reaction time 1 h): 3.3%
- Decomposition efficiency of daidzin family in concentrated soybean protein (pH1.6, heat treatment of enzyme: no, reaction time 3 h): 3.3%
- Decomposition efficiency of daidzin family in concentrated soybean protein (pH1.6, heat treatment of enzyme: no, reaction time 6 h): 3.4%
- Decomposition efficiency of daidzin family in concentrated soybean protein (pH1.6, heat treatment of enzyme: yes, reaction time 6 h): 2.9%
- Decomposition efficiency of daidzin family in roasted soy flour (pH2, heat treatment of enzyme no, reaction time 0 h): 3.5
- Decomposition efficiency of daidzin family in roasted soy flour (pH2, heat treatment of enzyme no, reaction time 1 h): 5.4
- Decomposition efficiency of daidzin family in roasted soy flour (pH2, heat treatment of enzyme no, reaction time 3 h): 4.8
- Decomposition efficiency of daidzin family in roasted soy flour (pH2, heat treatment of enzyme no, reaction time 6 h): 4.5
- Decomposition efficiency of daidzin family in roasted soy flour (pH2, heat treatment of enzyme yes, reaction time 6 h): 3.8
- Decomposition efficiency of daidzin family in soymilk (pH2.3, heat treatment of enzyme: no, reaction time 0 h): 10.5%
- Decomposition efficiency of daidzin family in soymilk (pH2.3, heat treatment of enzyme: no, reaction time 1 h): 45.3%
- Decomposition efficiency of daidzin family in soymilk (pH2.3, heat treatment of enzyme: no, reaction time 3 h): 48.9%
- Decomposition efficiency of daidzin family in soymilk (pH2.3, heat treatment of enzyme: no, reaction time 6 h): 51.5%
- Decomposition efficiency of daidzin family in soymilk (pH2.3, heat treatment of enzyme: yes, reaction time 6 h): 10.2%
- Decomposition efficiency of daidzin family in defatted soybean (pH2.6, heat treatment of enzyme: no, reaction time 0 h): 13.2%
- Decomposition efficiency of daidzin family in defatted soybean (pH2.6, heat treatment of enzyme: no, reaction time 1 h): 21.3%
- Decomposition efficiency of daidzin family in defatted soybean (pH2.6, heat treatment of enzyme: no, reaction time 3 h): 40.9%
- Decomposition efficiency of daidzin family in defatted soybean (pH2.6, heat treatment of enzyme: no, reaction time 6 h): 42.9%
- Decomposition efficiency of daidzin family in defatted soybean (pH2.6, heat treatment of enzyme: yes, reaction time 6 h): 13.0%
- Decomposition efficiency of daidzin family in concentrated soybean protein (pH2.7, heat treatment of enzyme: no, reaction time 0 h): 3.0%
- Decomposition efficiency of daidzin family in concentrated soybean protein (pH2.7, heat treatment of enzyme: no, reaction time 1 h): 40.7%
- Decomposition efficiency of daidzin family in concentrated soybean protein (pH2.7, heat treatment of enzyme: no, reaction time 3 h): 41.6%
- Decomposition efficiency of daidzin family in concentrated soybean protein (pH2.7, heat treatment of enzyme: no, reaction time 6 h): 45.0%
- Decomposition efficiency of daidzin family in concentrated soybean protein (pH2.7, heat treatment of enzyme: yes, reaction time 6 h): 3.2%
- Decomposition efficiency of daidzin family in roasted soy flour (pH3, heat treatment of enzyme no, reaction time 0 h): 3.5
- Decomposition efficiency of daidzin family in roasted soy flour (pH3, heat treatment of enzyme no, reaction time 1 h): 54.0
- Decomposition efficiency of daidzin family in roasted soy flour (pH3, heat treatment of enzyme no, reaction time 3 h): 60.4
- Decomposition efficiency of daidzin family in roasted soy flour (pH3, heat treatment of enzyme no, reaction time 6 h): 59.3
- Decomposition efficiency of daidzin family in roasted soy flour (pH3, heat treatment of enzyme yes, reaction time 6 h): 3.7
- Decomposition efficiency of daidzin family in defatted soybean (pH3.4, heat treatment of enzyme: no, reaction time 0 h): 13.2%
- Decomposition efficiency of daidzin family in defatted soybean (pH3.4, heat treatment of enzyme: no, reaction time 1 h): 60.6%
- Decomposition efficiency of daidzin family in defatted soybean (pH3.4, heat treatment of enzyme: no, reaction time 3 h): 65.5%
- Decomposition efficiency of daidzin family in defatted soybean (pH3.4, heat treatment of enzyme: no, reaction time 6 h): 71.0%
- Decomposition efficiency of daidzin family in defatted soybean (pH3.4, heat treatment of enzyme: yes, reaction time 6 h): 15.1%
- Decomposition efficiency of daidzin family in soymilk (pH3.5, heat treatment of enzyme: no, reaction time 0 h): 10.5%
- Decomposition efficiency of daidzin family in soymilk (pH3.5, heat treatment of enzyme: no, reaction time 1 h): 64.4%
- Decomposition efficiency of daidzin family in soymilk (pH3.5, heat treatment of enzyme: no, reaction time 3 h): 84.9%
- Decomposition efficiency of daidzin family in soymilk (pH3.5, heat treatment of enzyme: no, reaction time 6 h): 92.6%
- Decomposition efficiency of daidzin family in soymilk (pH3.5, heat treatment of enzyme: yes, reaction time 6 h): 10.6%
- Decomposition efficiency of daidzin family in concentrated soybean protein (pH3.7, heat treatment of enzyme: no, reaction time 0 h): 3.0%
- Decomposition efficiency of daidzin family in concentrated soybean protein (pH3.7, heat treatment of enzyme: no, reaction time 1 h): 58.4%
- Decomposition efficiency of daidzin family in concentrated soybean protein (pH3.7, heat treatment of enzyme: no, reaction time 3 h): 67.0%
- Decomposition efficiency of daidzin family in concentrated soybean protein (pH3.7, heat treatment of enzyme: no, reaction time 6 h): 74.8%
- Decomposition efficiency of daidzin family in concentrated soybean protein (pH3.7, heat treatment of enzyme: yes, reaction time 6 h): 3.1%
- Decomposition efficiency of daidzin family in roasted soy flour (pH4, heat treatment of enzyme no, reaction time 0 h): 3.5
- Decomposition efficiency of daidzin family in roasted soy flour (pH4, heat treatment of enzyme no, reaction time 1 h): 65.6
- Decomposition efficiency of daidzin family in roasted soy flour (pH4, heat treatment of enzyme no, reaction time 3 h): 79.5
- Decomposition efficiency of daidzin family in roasted soy flour (pH4, heat treatment of enzyme no, reaction time 6 h): 88.9
- Decomposition efficiency of daidzin family in roasted soy flour (pH4, heat treatment of enzyme yes, reaction time 6 h): 3.5
- Decomposition efficiency of daidzin family in defatted soybean [1]: 15.7%
- Decomposition efficiency of daidzin family in soymilk [1]: 9.0%
- Decomposition efficiency of daidzin family in defatted soybean [2]: 59.5%
- Decomposition efficiency of daidzin family in soymilk [2]: 52.6%
- Decomposition efficiency of daidzin family in defatted soybean [3]: 63.3%
- Decomposition efficiency of daidzin family in soymilk [3]: 66.1%
- Decomposition efficiency of daidzin family in defatted soybean [4]: 69.5%
- Decomposition efficiency of daidzin family in soymilk [4]: 79.7%
- Decomposition efficiency of daidzin family in defatted soybean [5]: 24.5%
- Decomposition efficiency of daidzin family in soymilk [5]: 9.1%
- Decomposition efficiency of daidzin family in roasted soy flour (pH5, heat treatment of enzyme no, reaction time 0 h): 3.5
- Decomposition efficiency of daidzin family in roasted soy flour (pH5, heat treatment of enzyme no, reaction time 1 h): 61.5
- Decomposition efficiency of daidzin family in roasted soy flour (pH5, heat treatment of enzyme no, reaction time 3 h): 75.3
- Decomposition efficiency of daidzin family in roasted soy flour (pH5, heat treatment of enzyme no, reaction time 6 h): 84.8
- Decomposition efficiency of daidzin family in roasted soy flour (pH5, heat treatment of enzyme yes, reaction time 6 h): 4.4
- Decomposition efficiency of daidzin family in concentrated soybean protein (pH5.1, heat treatment of enzyme: no, reaction time 0 h): 3.0%
- Decomposition efficiency of daidzin family in concentrated soybean protein (pH5.1, heat treatment of enzyme: no, reaction time 1 h): 56.6%
- Decomposition efficiency of daidzin family in concentrated soybean protein (pH5.1, heat treatment of enzyme: no, reaction time 3 h): 63.0%
- Decomposition efficiency of daidzin family in concentrated soybean protein (pH5.1, heat treatment of enzyme: no, reaction time 6 h): 68.8%
- Decomposition efficiency of daidzin family in concentrated soybean protein (pH5.1, heat treatment of enzyme: yes, reaction time 6 h): 3.2%
- Decomposition efficiency of daidzin family in defatted soybean (pH5.4, heat treatment of enzyme: no, reaction time 0 h): 15.7%
- Decomposition efficiency of daidzin family in defatted soybean (pH5.4, heat treatment of enzyme: no, reaction time 1 h): 55.8%
- Decomposition efficiency of daidzin family in defatted soybean (pH5.4, heat treatment of enzyme: no, reaction time 3 h): 58.5%
- Decomposition efficiency of daidzin family in defatted soybean (pH5.4, heat treatment of enzyme: no, reaction time 6 h): 63.1%
- Decomposition efficiency of daidzin family in defatted soybean (pH5.4, heat treatment of enzyme: yes, reaction time 6 h): 55.1%
- Decomposition efficiency of daidzin family in soymilk (pH6.2, heat treatment of enzyme: no, reaction time 0 h): 9.0%
- Decomposition efficiency of daidzin family in soymilk (pH6.2, heat treatment of enzyme: no, reaction time 1 h): 45.9%
- Decomposition efficiency of daidzin family in soymilk (pH6.2, heat treatment of enzyme: no, reaction time 3 h): 53.6%
- Decomposition efficiency of daidzin family in soymilk (pH6.2, heat treatment of enzyme: no, reaction time 6 h): 58.1%
- Decomposition efficiency of daidzin family in soymilk (pH6.2, heat treatment of enzyme: yes, reaction time 6 h): 9.7%
- Decomposition efficiency of daidzin family in roasted soy flour (pH6.5, heat treatment of enzyme no, reaction time 0 h): 3.4
- Decomposition efficiency of daidzin family in roasted soy flour (pH6.5, heat treatment of enzyme no, reaction time 1 h): 54.6
- Decomposition efficiency of daidzin family in roasted soy flour (pH6.5, heat treatment of enzyme no, reaction time 3 h): 60.8
- Decomposition efficiency of daidzin family in roasted soy flour (pH6.5, heat treatment of enzyme no, reaction time 6 h): 65.6
- Decomposition efficiency of daidzin family in roasted soy flour (pH6.5, heat treatment of enzyme yes, reaction time 6 h): 4.7
- Decomposition efficiency of daidzin family in concentrated soybean protein [6]: 3.0%
- Decomposition efficiency of daidzin family in defatted soybean [6]: 13.2%
- Decomposition efficiency of daidzin family in concentrated soybean protein [7]: 51.0%
- Decomposition efficiency of daidzin family in defatted soybean [7]: 54.1%
- Decomposition efficiency of daidzin family in concentrated soybean protein [8]: 57.1%
- Decomposition efficiency of daidzin family in defatted soybean [8]: 56.0%
- Decomposition efficiency of daidzin family in concentrated soybean protein [9]: 58.8%
- Decomposition efficiency of daidzin family in defatted soybean [9]: 58.2%
- Decomposition efficiency of daidzin family in concentrated soybean protein [10]: 3.2%
- Decomposition efficiency of daidzin family in defatted soybean [10]: 49.5%
- Decomposition efficiency of daidzin family in soymilk (pH7.2, heat treatment of enzyme: no, reaction time 0 h): 9.0%
- Decomposition efficiency of daidzin family in soymilk (pH7.2, heat treatment of enzyme: no, reaction time 1 h): 43.6%
- Decomposition efficiency of daidzin family in soymilk (pH7.2, heat treatment of enzyme: no, reaction time 3 h): 47.6%
- Decomposition efficiency of daidzin family in soymilk (pH7.2, heat treatment of enzyme: no, reaction time 6 h): 51.8%
- Decomposition efficiency of daidzin family in soymilk (pH7.2, heat treatment of enzyme: yes, reaction time 6 h): 10.2%
- Decomposition efficiency of daidzin family in defatted soybean (pH7.8, heat treatment of enzyme: no, reaction time 0 h): 13.3%
- Decomposition efficiency of daidzin family in defatted soybean (pH7.8, heat treatment of enzyme: no, reaction time 1 h): 43.1%
- Decomposition efficiency of daidzin family in defatted soybean (pH7.8, heat treatment of enzyme: no, reaction time 3 h): 48.4%
- Decomposition efficiency of daidzin family in defatted soybean (pH7.8, heat treatment of enzyme: no, reaction time 6 h): 51.9%
- Decomposition efficiency of daidzin family in defatted soybean (pH7.8, heat treatment of enzyme: yes, reaction time 6 h): 21.7%
- Decomposition efficiency of daidzin family in roasted soy flour (pH8.5, heat treatment of enzyme no, reaction time 0 h): 3.8
- Decomposition efficiency of daidzin family in roasted soy flour (pH8.5, heat treatment of enzyme no, reaction time 1 h): 36.9
- Decomposition efficiency of daidzin family in roasted soy flour (pH8.5, heat treatment of enzyme no, reaction time 3 h): 46.4
- Decomposition efficiency of daidzin family in roasted soy flour (pH8.5, heat treatment of enzyme no, reaction time 6 h): 51.8
- Decomposition efficiency of daidzin family in roasted soy flour (pH8.5, heat treatment of enzyme yes, reaction time 6 h): 3.9
- Decomposition efficiency of daidzin family in concentrated soybean protein (pH8.6, heat treatment of enzyme: no, reaction time 0 h): 3.2%
- Decomposition efficiency of daidzin family in concentrated soybean protein (pH8.6, heat treatment of enzyme: no, reaction time 1 h): 9.9%
- Decomposition efficiency of daidzin family in concentrated soybean protein (pH8.6, heat treatment of enzyme: no, reaction time 3 h): 15.9%
- Decomposition efficiency of daidzin family in concentrated soybean protein (pH8.6, heat treatment of enzyme: no, reaction time 6 h): 27.4%
- Decomposition efficiency of daidzin family in concentrated soybean protein (pH8.6, heat treatment of enzyme: yes, reaction time 6 h): 3.2%
- Decomposition efficiency of daidzin family in soymilk (pH11.6, heat treatment of enzyme: no, reaction time 0 h): 8.7%
- Decomposition efficiency of daidzin family in soymilk (pH11.6, heat treatment of enzyme: no, reaction time 1 h): 43.6%
- Decomposition efficiency of daidzin family in soymilk (pH11.6, heat treatment of enzyme: no, reaction time 3 h): 49.6%
- Decomposition efficiency of daidzin family in soymilk (pH11.6, heat treatment of enzyme: no, reaction time 6 h): 52.3%
- Decomposition efficiency of daidzin family in soymilk (pH11.6, heat treatment of enzyme: yes, reaction time 6 h): 9.3%
Structure (SMILES): O=c1c(-c2ccc(O)cc2)coc2cc(O)ccc12 [daidzein]
